Values quoted from earlier work as cited in patent US20070203145A1, “ZOPICLONE RESOLUTION” (priority 2006, published 2007).

Tests used:
[1] = compared with racemic zopiclone; per U.S. Pat. No. 6,444,673
[2] = compared with racemic zopiclone; per U.S. Pat. No. 6,444,673; remark: listed apart in the source

## CN1CCN(C(=O)O[C@H]2c3nccnc3C(=O)N2c2ccc(Cl)cn2)CC1 [S-zopiclone, Eszopiclone]
[1]
  activity relative to the racemic mixture: twice the activity of the racemic mixture
[2]
  toxicity relative to the racemic mixture: less toxicity
